Point of comparison: `CN1CCN(c2ccc(C(=O)N[C@H]3CC[C@H](CCN4CCC(c5cccc6c5CCO6)CC4)CC3)cc2)CC1`, melting point 241 °C. Against it:
- COn1nnc2cc3c(=O)n(C(C)Cn4ncnn4)nnc3cc2c1=O (stereo not given) — lower, 227 to 231 °C
- O=C(Cc1ccccc1)N=C1SCCN1Cc1ccc(Cl)nc1 — lower, 157 to 158 °C
- CS(=O)(=O)On1nnc2ccc([N+](=O)[O-])cc21 — lower, 115 to 116 °C
- Cc1ccc2c(c1)CC(n1ccnc1C(N)=O)C2=O (stereo not given) — lower, 196 °C
- COC(=O)C(C)c1ccc2oc(-c3c(F)cccc3Cl)nc2c1 (stereo not given) — lower, 104 to 105 °C
- CCOC(=O)c1scc2c1CN(C)C(=O)c1cncn1-2 — lower, 208 °C
- O=C(Nc1ccnnc1)Nc1cc(F)cc(F)c1 — higher, 272 to 273 °C
- CCCNC(=O)n1nc(Oc2ncc(C(F)(F)F)cc2Cl)c(Cl)c1C — lower, 54 to 56 °C
- O=[N+]([O-])c1cccc2nn(-c3ccccc3)nc12 — lower, 155 to 156 °C
- CN(C)CCC=Cc1ccc2c(c1)CCCN2C(=O)c1ccc(-c2ccc(Cl)cc2)cc1 — lower, 142 to 144 °C
- CC(=O)C1CCC2C3CCC4=CC(=O)C=CC4(C)C3C(O)CC12CO[N+](=O)[O-] (stereo not given) — lower, 162 to 164 °C
- COc1ccccc1NC(=O)Nc1nc2nc(NCCCN3CCN(C)CC3)ncc2cc1-c1c(Cl)cccc1Cl — lower, 152 to 154 °C
- COC(=O)C1=Cc2cc(-c3ccc(N4CCOCC4)cc3)ccc2N(C=O)CC1 — lower, 178 to 181 °C
- COc1cc(OC)c(-c2cncnc2)cc1/C=C/C(=O)c1ccc(C(=O)O)cc1 — higher, > 260 °C
- CCCCOc1cc(CO)cc(N)c1Cc1ccccc1 — lower, 105 to 107 °C
- CCOC(=O)CNC(=O)CCCCCNC(=O)OC(C)(C)C — lower, 76 to 77 °C
- Cc1c(-c2ccccc2)[nH]c(=O)n1C1CCN(Cc2cccc(Cl)c2)CC1 — higher, 248 to 249 °C
- CC(C)(C)c1cccc(S(=O)(=O)n2c(Cc3ccc(CNS(C)(=O)=O)cc3)cc3cc(C(F)(F)F)ccc32)c1 — lower, 96 °C
- COc1ccc(CCNC(=O)CN(c2ccccc2)c2ccccc2)cc1OC — lower, 88 to 93 °C
- Cc1cc(C)c(NC(=O)N(O)C(C)C)cc1C — lower, 176 to 177 °C
- Nc1nc(-c2cc(Cl)ccc2Cl)nc(N2CCS(=O)(=O)CC2)n1 — higher, > 275 °C
- COc1cc(F)c(C(=O)CCl)c(OC)c1 — lower, 93 to 96 °C
- O=S(=O)(c1ccccc1)n1c2ccc(Br)cc2c2c(Cl)ccnc21 — lower, 212 to 214 °C
- CC(C)CC(=O)N1CCC(c2nc3cc(-c4ccc(C(N)=O)c(F)c4)ccc3o2)CC1 — lower, 186 to 190 °C
- CC(=O)N(C)CC(C)c1ccncc1 (stereo not given) — lower, 83 to 88 °C
- CCCCCCCCc1ccc(C(O)C(=O)c2ccccc2)cc1 (stereo not given) — lower, 85 to 89 °C
- CC(=O)Oc1cc2nc[nH]c(=O)c2cc1OC(C)=O — lower, 235 to 237 °C
- CCOP(=O)(CNC(Cc1ccc(Cl)cc1)c1cc(C(C)(C)C)c(O)c(C(C)(C)C)c1)OCC (stereo not given) — lower, 120 to 121 °C
- COc1ccc(CCNC=C2C(=O)Nc3cc(OC)c(OC)cc32)cc1OC — lower, 164 to 166 °C
- COCc1nc(C=NNC(=S)SC)c[nH]1 — lower, 150 to 154 °C
- Cc1c(F)c(N2CCNC(C)C2)cc2c1C(=O)CCN2C1CC1 (stereo not given) — lower, 98 to 100 °C
- CC(OC(=O)OC1CC(=O)NC1=O)OC(=O)C(C)C (stereo not given) — lower, 50 to 54 °C
- Cc1c(O)cc2c(c1C)NCC2 — lower, 164 to 167 °C
- Cc1cc2ncc(Cl)nc2cc1C — lower, 103 °C
- N#Cc1ccc(CN2CC=C(/C=C/c3ccccc3)CC2)cc1 — lower, 155 to 157 °C
- CN1CCN2c3ccc(Cl)cc3C(c3ccco3)=NCC2C1 (stereo not given) — not separable, > 240 °C
- CCOC(=O)c1c(CN2CCNCC2)nc2cc(OC)c(OC)cc2c1-c1ccc(OC)c(OC)c1 — lower, 192 to 193 °C
- CC(C)(CO)NS(=O)(=O)c1ccc(Cl)c(NC(=O)c2cnn3c(C(F)(F)F)cc(-c4ccc(C(F)(F)F)cc4)nc23)c1 — higher, 246 °C
- Cc1ccc([N+](=O)[O-])cc1Nc1ncc(-c2cccnc2)o1 — higher, 252 °C
- FC(F)(F)c1ccc2nc(-c3csc(Nc4c(Cl)cccc4Cl)n3)[nH]c2c1 — higher, 242 to 243 °C
- O=C(Cn1ccnc1)c1ccccc1 — lower, 121 to 122 °C
- O=C1CCCc2cc(OCc3cncnc3)ccc21 — lower, 146 to 147 °C
- O=C(Nc1ccc(F)cc1F)c1cccc(Oc2cccc(Cl)c2)n1 — lower, 116 to 117 °C
- O=C(O)CNC(=O)CSC(=O)c1ccccc1 — lower, 140 to 142 °C
- COc1ccc(-c2cc(CO)c(C)o2)cc1 — lower, 62 to 64 °C
- CCSc1nc2c(C)sc(C(=O)OC)c2n1Cc1ccc(-c2ccccc2C#N)cc1 — lower, 149 to 151 °C
- COc1ccc(C(=N)NS(=O)(=O)C=Cc2ccc(Cl)c(Cl)c2)cc1OC — lower, 205 to 210 °C
- O=C(O)CCc1ccc(CC(=O)OCc2ccccc2)cc1 — lower, 62 to 64.5 °C
- O=C(Nc1ccc2cc(CN3CCC(CO)CC3)cnc2c1)c1ccc(-c2ccc(F)cc2)cc1 — lower, 191 to 195 °C

— a melting point compilation (Tetko et al.; mined from patent text by program, amines drawn as free bases though some values may be those of a salt)
